Structures can show the parent of a compound that is named as a salt.

One may read the EC50 as the concentration at which the effect is half-maximal.

The assay deals with T1, Calcium sensing receptor (hCaSR) (Homo sapiens, UniProt P41180).
T1 construct: expressed in transfected cells; host or cells: HEK293 (stably transfected)
T1 sequence (P41180 20-1078): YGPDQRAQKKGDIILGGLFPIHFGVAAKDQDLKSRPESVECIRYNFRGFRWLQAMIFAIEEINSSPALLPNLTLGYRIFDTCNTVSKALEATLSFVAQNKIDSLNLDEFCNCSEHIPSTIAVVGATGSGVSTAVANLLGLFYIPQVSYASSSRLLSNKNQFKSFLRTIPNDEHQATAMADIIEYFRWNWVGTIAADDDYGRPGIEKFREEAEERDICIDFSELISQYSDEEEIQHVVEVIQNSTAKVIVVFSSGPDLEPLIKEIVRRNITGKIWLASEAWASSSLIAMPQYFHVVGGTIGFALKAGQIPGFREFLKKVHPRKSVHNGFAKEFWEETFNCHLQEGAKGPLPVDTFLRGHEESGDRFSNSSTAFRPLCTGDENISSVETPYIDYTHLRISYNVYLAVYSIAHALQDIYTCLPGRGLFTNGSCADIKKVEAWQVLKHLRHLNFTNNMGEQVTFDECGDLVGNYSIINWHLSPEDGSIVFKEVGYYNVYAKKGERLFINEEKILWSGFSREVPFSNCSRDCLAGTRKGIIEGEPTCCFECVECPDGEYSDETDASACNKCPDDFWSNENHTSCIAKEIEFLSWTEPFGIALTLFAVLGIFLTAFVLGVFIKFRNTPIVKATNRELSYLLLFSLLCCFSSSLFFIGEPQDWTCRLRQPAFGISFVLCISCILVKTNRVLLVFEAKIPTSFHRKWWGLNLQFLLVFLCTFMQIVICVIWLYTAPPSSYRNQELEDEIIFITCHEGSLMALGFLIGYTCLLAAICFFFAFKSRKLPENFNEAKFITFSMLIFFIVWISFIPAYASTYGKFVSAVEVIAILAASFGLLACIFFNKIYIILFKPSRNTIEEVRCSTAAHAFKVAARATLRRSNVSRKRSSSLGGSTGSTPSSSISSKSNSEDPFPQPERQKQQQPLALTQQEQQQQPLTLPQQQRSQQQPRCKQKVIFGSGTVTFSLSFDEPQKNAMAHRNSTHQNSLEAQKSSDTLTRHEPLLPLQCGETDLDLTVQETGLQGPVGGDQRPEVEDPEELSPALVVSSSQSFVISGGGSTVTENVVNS
Description: In-vitro assay of calcimimetics through modulation of calcium sensing receptor (intracellular calcium increase, FLIPR). Type of assay: cell-based. The conditions noted are these: stably transfected HEK293 cells expressing hCaSR; Fluo4NW dye; 0.3 mM CaCl2; 8-point assay; read-out: EC50 in range. In outline:
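Stably transfected HEK293 cells expressing hCaSR, loaded 30 min with Fluo4NW dye. Intracellular calcium rise measured on FLIPR in 20 mM HEPES buffer with 0.3 mM CaCl2. EC50 derived from 8-point concentration series.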
For orientation: Calcium flux is commonly read through the fluorescence of an indicator in the cells.
Turning to `CC(N[C@H](C)c1cccc(Cl)c1)c1cc(-c2cc(F)cc(CCC(=O)O)c2)c2ccccc2c1` (mixture of isomers) [Example 156, 3-(3-(3-(1-(((R)-1-(3-Chlorophenyl)ethyl)amino)ethyl)naphthalen-1-yl)-5-fluorophenyl)propanoic acid hydrochloride], the EC50 was in the range of 0.02 to 0.05 µM. Regarding `COc1cc([C@@H](C)NCc2cc(-c3ccc(C(F)(F)F)cc3)c3ccccc3c2)ccc1F` [Example 2, (R)-1-(4-Fluoro-3-methoxyphenyl)-N-((4-(4-(trifluoromethyl)phenyl)naphthalen-2-yl)methyl)ethanamine hydrochloride], the concentration for a half-maximal effect (EC50) was 0.02 to 0.05 µM. As for `COc1cccc([C@@H](C)NC(C)c2cc(-c3cccc(CCC(=O)O)c3F)c3ccccc3c2)c1` (stereo partly drawn) [Example 129, 3-(2-Fluoro-3-(3-(1-(((R)-1-(3-methoxyphenyl)ethyl)amino)ethyl)naphthalen-1-yl)phenyl)propanoic acid hydrochloride], the EC50 is less than 0.02 µM. On to `COc1cccc([C@@H](C)NCc2cc(-c3ccc(F)c(CCC(=O)O)c3)c3ccccc3c2)c1` [Example 110, hydrochloride], for which the 50% effective concentration (EC50) was less than 0.02 µM. For the molecule `COc1cccc([C@@H](C)NC(C)c2cc(-c3ccc(C(F)(F)F)c(C(=O)O)c3)c3ccccc3c2)c1` (stereo partly drawn) [Example 128, 5-(3-(1-(((R)-1-(3-Methoxyphenyl)ethyl)amino)ethyl)naphthalen-1-yl)-2-(trifluoromethyl) benzoic acid hydrochloride], the 50% effective concentration (EC50) lay in the range of 0.05 to 0.4 µM. Consider `COc1cccc([C@@H](C)NC(C)c2cc(-c3ccc(C(F)(F)F)c(CCC(=O)O)c3)c3ccccc3c2)c1` (stereo partly drawn) [Example 145, 3-(5-(3-(1-(((R)-1-(3-Methoxyphenyl)ethyl)amino)ethyl)naphthalen-1-yl)-2-(trifluoromethyl)phenyl)propanoic acid hydrochloride], for which the EC50 lay in the range of 0.05 to 0.4 µM. As for `COc1cccc([C@@H](C)NC(C)c2cc(-c3cc(F)cc(CCC(=O)O)c3)c3ccccc3c2)c1` (stereo partly drawn) [Example 134, 3-(3-Fluoro-5-(3-(1-(((R)-1-(3-methoxyphenyl)ethyl)amino)ethyl)naphthalen-1-yl)phenyl)propanoic acid hydrochloride], the EC50 was less than 0.02 µM. In the case of `C[C@@H](NCc1cc(-c2ccc(C(=O)O)cc2)c2ccccc2c1)c1cccc2ccccc12` [Example 106, (R)-4-(3-(((1-(Naphthalen-1-yl)ethyl)amino)methyl)naphthalen-1-yl)benzoic acid hydrochloride], the EC50 was 0.05 to 0.4 µM. Consider `COc1cccc([C@@H](C)NC(C)c2cc(-c3cc(F)cc(CCC(=O)O)c3)c3cc(F)ccc3c2)c1` (stereo partly drawn) [Example 147, 3-(3-Fluoro-5-(7-fluoro-3-(1-(((R)-1-(3-methoxyphenyl)ethyl)amino)ethyl)naphthalen-1-yl)phenyl)propanoic acid hydrochloride], for which the EC50 was 0.05 to 0.4 µM. `COc1cccc([C@@H](C)NC(C)c2cc(-c3cccc(C(=O)O)c3C)c3ccccc3c2)c1` (stereo partly drawn) [Example 116, 3-(3-(1-(((R)-1-(3-Methoxyphenyl)ethyl)amino)ethyl)naphthalen-1-yl)-2-methylbenzoic acid hydrochloride]: the half-maximal effective concentration (EC50) lay in the range of 0.02 to 0.05 µM. Take `CC(N[C@H](C)c1cccc(Cl)c1)c1cc(-c2ccc(OC(F)F)cc2)c2ccccc2c1` (stereo partly drawn) [Example 22, (1R)-1-(3-Chlorophenyl)-N-1-(4-(4-(difluoromethoxy)phenyl)naphthalen-2-yl)ethyl)ethanamine hydrochloride]: the concentration for a half-maximal effect (EC50) was less than 0.02 µM.

With `CCOc1cccc([C@@H](C)NC(C)c2cc(-c3ccc(F)c(CCC(=O)O)c3)c3ccccc3c2)c1` (stereo partly drawn) [Example 142, 3-(5-(3-(1-(((R)-1-(3-Ethoxyphenyl)ethyl)amino)ethyl)naphthalen-1-yl)-2-fluorophenyl) propanoic acid hydrochloride], the EC50 is less than 0.02 µM. In the case of `COc1cccc([C@@H](C)NC(C)c2cc(-c3cc(F)cc(OC(C)(C)C(=O)O)c3)c3ccccc3c2)c1` (stereo partly drawn) [Example 151, 2-(3-Fluoro-5-(3-(1-(((R)-1-(3-methoxyphenyl)ethyl)amino)ethyl)naphthalen-1-yl)phenoxy)-2-methylpropanoic acid hydrochloride], the EC50 was in the range of 0.05 to 0.4 µM. Take `COc1cccc([C@@H](C)NC(C)c2cc(-c3ccc(C)c(CCC(=O)O)c3)c3ccccc3c2)c1` (stereo partly drawn) [Example 137, 3-(5-(3-(1-(((R)-1-(3-Methoxyphenyl)ethyl)amino)ethyl)naphthalen-1-yl)-2-methylphenyl) propanoic acid hydrochloride]: the EC50 was less than 0.02 µM. Then `COc1cccc([C@@H](C)NCc2cc(-c3ccc(F)c(C(=O)O)c3)c3ccccc3c2)c1` [Example 97, (R)-2-Fluoro-5-(3-(((1-(3-methoxyphenyl)ethyl)amino)methyl)naphthalen-1-yl)benzoic acid hydrochloride], with less than 0.02 µM; and `COc1cc([C@@H](C)NCc2cc(-c3ccc(F)c(C(=O)O)c3)c3ccccc3c2)ccc1F` [Example 96, (R)-2-Fluoro-5-(3-(((1-(4-fluoro-3-methoxyphenyl)ethyl)amino)methyl)naphthalen-1-yl)benzoic acid hydrochloride], with 0.05 to 0.4 µM.

As to `COc1cccc([C@@H](C)NC(C)c2cc(-c3ccc(OC(F)F)cc3)c3ccccc3c2)c1` (stereo partly drawn) [Example 21, 1-(4-(4-(Difluoromethoxy)phenyl)naphthalen-2-yl)-N-((R)-1-(3-methoxyphenyl)ethyl)ethanamine hydrochloride], the EC50 was less than 0.02 µM.

On to `COc1cccc([C@@H](C)NCc2cc(-c3ccc(Cl)c(C(=O)O)c3)c3ccccc3c2)c1` [Example 99, (R)-2-Chloro-5-(3-(((1-(3-methoxyphenyl)ethyl)amino)methyl)naphthalen-1-yl)benzoic acid hydrochloride], for which the EC50 fell in the range of 0.02 to 0.05 µM. As for `COc1cc([C@@H](C)NC(C)c2cc(-c3ccc(C)c(C(=O)O)c3)c3ccccc3c2)ccc1F` (stereo partly drawn) [Example 115, 5-(3-(1-(((R)-1-(4-Fluoro-3-methoxyphenyl)ethyl)amino)ethyl)naphthalen-1-yl)-2-methylbenzoic acid hydrochloride], the concentration giving a half-maximal response (EC50) lay in the range of 0.05 to 0.4 µM.

Turning to `CCOc1cccc([C@@H](C)NC(C)c2cc(-c3ccc(C(F)(F)F)cc3)c3ccccc3c2)c1` (stereo partly drawn) [Example 12, (1R)-1-(3-Ethoxyphenyl)-N-(1-(4-(4-(trifluoromethyl)phenyl)naphthalen-2-yl)ethyl)ethanamine hydrochloride], the EC50 is less than 0.02 µM.

For `CC(N[C@H](C)c1cccc(Cl)c1)c1cc(-c2ccc(F)c(CCC(=O)O)c2)c2ccccc2c1` (stereo partly drawn) [Example 144, 3-(5-(3-(1-(((R)-1-(3-Chlorophenyl)ethyl)amino)ethyl)naphthalen-1-yl)-2-fluorophenyl)propanoic acid hydrochloride], the half-maximal effective concentration (EC50) is 0.02 to 0.05 µM. Then `COc1cccc([C@@H](C)NC(C)c2cc(-c3ccc(S(C)(=O)=O)cc3)c3ccccc3c2)c1` (stereo partly drawn) [Example 17, (1R)-1-(3-Methoxyphenyl)-N-(1-(4-(4-(methylsulfonyl)phenyl)naphthalen-2-yl)ethyl)ethanamine hydrochloride], with 0.05 to 0.4 µM; and `COCCOc1cccc([C@@H](C)NCc2cc(-c3ccc(F)c(C(=O)O)c3)c3ccccc3c2)c1` [Example 113, (R)-2-Fluoro-5-(3-(((1-(3-(2-methoxyethoxy)phenyl)ethyl)amino)methyl)naphthalen-1-yl) benzoic acid hydrochloride], with 0.05 to 0.4 µM. With `CCC(N[C@H](C)c1cccc(OC)c1)c1cc(-c2ccc(F)c(CCC(=O)O)c2)c2ccccc2c1` (stereo partly drawn) [Example 140, 3-(2-Fluoro-5-(3-(1-(((R)-1-(3-methoxyphenyl)ethyl)amino)propyl)naphthalen-1-yl)phenyl)propanoic acid hydrochloride], the 50% effective concentration (EC50) fell in the range of 0.05 to 0.4 µM. With `C[C@@H](NCc1cc(-c2cccc(C(F)(F)F)c2)c2ccccc2c1)c1cccc2ccccc12` [Example 3, (R)-1-(Naphthalen-1-yl)-N-((4-(3-(trifluoromethyl)phenyl)naphthalen-2-yl)methyl)ethanamine hydrochloride], the 50% effective concentration (EC50) was less than 0.02 µM.

The values above are taken from patent publication US9493396B2, “Substituted naphthalene compounds as calcium sensing receptor modulators” (LUPIN ATLANTIS HOLDINGS SA, priority 2013, dated 2016).
